Experimental findings from patent publication US20100331348A1, “TROPANE DERIVATIVES USEFUL AS PESTICIDES” (SYNGENTA CROP PROTECTION, INC., priority 2007, published 2010) are described below.

Like-named read-outs stand apart in the source and are kept apart here.

One data set deals with Heliothis virescens. Put plainly: Heliothis virescens (Tobacco budworm) egg test on artificial diet. The following applies: 96 h, read-out: control of Heliothis virescens.
A further data set deals with Septoria tritici. Put plainly: Septoria tritici (leaf blotch) growth inhibition in nutrient broth. Format: cell-based. The conditions noted are these: Zymoseptoria tritici, 72 hrs, read-out: control of fungal infection, Septoria tritici.
Data set [1] deals with Puccinia recondita f.sp. tritici. Put plainly: Puccinia recondita f.sp. tritici (wheat brown rust) leaf disk assay. Format: in vivo. The following applies: foliar, 216 h, preventive, nine days after inoculation, read-out: control of fungal infection, Puccinia recondita f.sp. tritici.
Another data set concerns Pyricularia oryzae. In words: whole plant or invertebrate. In kind it is in vivo. The following applies: foliar, 96 h.
Another data set has as its system Pythium ultimum. Put plainly: Pythium ultimum (Damping off) growth inhibition in potato dextrose broth. Format: cell-based. The following applies: Globisporangium ultimum, 48 hours, read-out: control of fungal infection, Pythium ultimum.
In a further data set the test system is Plutella xylostella. In words: Plutella xylostella (Diamond back moth) artificial diet test. The conditions noted are these: 120 h, read-out: control of Plutella xylostella.
The test system of another data set is Tetranychus urticae. The following applies: foliar, 192 h, read-out: control of Tetranychus urticae.
In the next data set the test system is Aedes aegypti. Put plainly: Aedes aegypti (Yellow fever mosquito) larvae test. The conditions noted are these: 48 h. Format: in vivo.
The test system of the next data set is Spodoptera littoralis. In words: Spodoptera littoralis (Egyptian cotton leafworm) cotton leaf disc test. The following applies: in Gossypium hirsutum, foliar, 72 h, read-out: control of Spodoptera littoralis.
A further data set deals with Plasmopara viticola. Put plainly: Plasmopara viticola (downy mildew of grapevine) leaf disk assay. In kind it is in vivo. The following applies: foliar, 168 h, preventive, seven days after inoculation, read-out: control of fungal infection, Plasmopara viticola.
The test system of a further data set is Myzus persicae. In words: Myzus persicae (Green peach aphid) sunflower leaf disc test. The following applies: foliar, 144 h, read-out: control of Myzus persicae.
In data set [2] the test system is Erysiphe graminis f.sp. tritici. In words: Erysiphe graminis f.sp. tritici (wheat powdery mildew) leaf disk assay. Format: in vivo. The conditions noted are these: Blumeria graminis, foliar, 96 h, preventive, four days after inoculation, read-out: control of fungal infection, Erysiphe graminis fsp. tritici.
The next data set relates to Phytophthora infestans. In words: whole plant or invertebrate. In kind it is in vivo. The conditions noted are these: foliar, 96 h, read-out: control of fungal infection, Phytophthora infestans.
Where [3] appears, read: read-out: control of fungal infection, Pyricularia oryzae (at least 60% list).
Setting [4] is: read-out: control of fungal infection, Pyricularia oryzae (at least 80% list).

In the case of `FC(F)(F)c1ccc(CON=C2CC3CCC(C2)N3c2ncnc3ccccc23)cc1` [Example 5.128], the pest or weed control at 200 ppm in the data set on Heliothis virescens was at least 80%; in [1] it was at least 80%; in the data set with Pyricularia oryzae (setting [3]), at least 60%; in the data set with Pyricularia oryzae (setting [4]) it was at least 80%; with Plutella xylostella, at least 80%; in the data set on Tetranychus urticae, at least 80%. Also, the inhibition of growth at 200 ppm in the data set with Septoria tritici and with Pythium ultimum was at least 60% in each case. The compound also had a pest or weed control at 2 ppm in the data set on Aedes aegypti of at least 80%.
Broadly, the melting point is the temperature, or range, at which the solid turns liquid. For `FC(F)(F)c1cccc(OC2C[C@H]3CC[C@@H](C2)N3c2ncnc3ccsc23)n1` (stereo partly shown) [Example 2.78], the melting point was found to be 109 °C. Besides, the inhibition of growth at 200 ppm in the data set on Septoria tritici was at least 60%. Besides, the pest or weed control at 200 ppm in data set [1] was at least 80%. In addition, in the data set on Pyricularia oryzae (setting [3]), the pest or weed control at 200 ppm is at least 60%. Also, the pest or weed control at 200 ppm with Pyricularia oryzae (setting [4]) was at least 80%.
As for `COC(=O)CC1CC2CCC(C1)N2c1ncnc2sccc12` (stereo not shown) [Example 7.9], the inhibition of growth at 200 ppm in the data set on Septoria tritici is at least 60%. Also, the pest or weed control at 200 ppm with Plutella xylostella and in the data set with Tetranychus urticae was at least 80% each time. Further, the pest or weed control at 2 ppm with Aedes aegypti was at least 80%.
In the case of `Cc1ccc(C=C2CC3CCC(C2)N3c2ncnc3sccc23)cc1` [Example 3.32], the pest or weed control at 200 ppm with Heliothis virescens was at least 80%; in [1] it was at least 80%; in the data set on Pyricularia oryzae (setting [3]), at least 60%; in the data set with Pyricularia oryzae (setting [4]) it was at least 80%; with Plutella xylostella, at least 80%; in the data set with Spodoptera littoralis, at least 80%. Moreover, the pest or weed control at 200 ppm in the data set with Tetranychus urticae, in the data set with Plasmopara viticola and in the data set on Myzus persicae was at least 80% each time. The compound also returned a pest or weed control at 2 ppm in the data set with Aedes aegypti of at least 80%.
Turning to `CCc1ncnc(N2C3CCC2CC(=Cc2ccc(C)cc2)C3)c1Cl` [Example 3.7], the pest or weed control at 200 ppm (in the data set on Heliothis virescens; in [1]; in the data set with Plutella xylostella; in the data set on Spodoptera littoralis; with Tetranychus urticae) was at least 80% in each case. Further, in the data set with Aedes aegypti, the pest or weed control at 2 ppm is at least 80%.
Consider `CCc1ncnc(N2C3CCC2CC(=CCOc2cc(C)nc(C)n2)C3)c1Cl` [Example 3.15], for which the pest or weed control at 200 ppm (with Heliothis virescens; in data set [1]; with Pyricularia oryzae (setting [4])) was at least 80% each time. The inhibition of growth at 200 ppm with Septoria tritici is at least 60%. The compound further had a pest or weed control at 2 ppm in the data set on Aedes aegypti of at least 80%.
As for `Clc1ccc(CC2CC3CCC(C2)N3c2ncnc3sccc23)cc1` (stereo not shown) [Example 7.10], the pest or weed control at 200 ppm with Heliothis virescens is at least 80%; in [1], at least 80%; in the data set on Pyricularia oryzae (setting [3]) it was at least 60%; in the data set with Pyricularia oryzae (setting [4]), at least 80%; in the data set on Plasmopara viticola, at least 80%. For the same compound, the inhibition of growth at 200 ppm in the data set on Septoria tritici was at least 60%. The pest or weed control at 2 ppm in the data set with Aedes aegypti is at least 80%.
For the compound `Fc1ccc(F)c(CON=C2CC3CCC(C2)N3c2ncnc3ccccc23)c1F` [Example 5.134], the pest or weed control at 200 ppm is at least 80% in the data set with Heliothis virescens, at least 80% in [1], at least 60% in the data set on Pyricularia oryzae (setting [3]) and at least 80% in the data set with Plutella xylostella. Further, the inhibition of growth at 200 ppm in the data set with Septoria tritici and in the data set with Pythium ultimum was at least 60% in each case. In the data set with Aedes aegypti, this compound showed a pest or weed control at 2 ppm of at least 80%.
In the case of `CCc1ncnc(N2C3CCC2CC(=Cc2ccc(OC)cc2)C3)c1Cl` [Example 3.9], the pest or weed control at 200 ppm in the data set on Heliothis virescens is at least 80%; in the data set on Pyricularia oryzae (setting [3]) it was at least 60%; in the data set on Pyricularia oryzae (setting [4]), at least 80%; in the data set with Plutella xylostella, at least 80%; with Spodoptera littoralis it was at least 80%; in the data set with Tetranychus urticae, at least 80%. Besides, in the data set with Aedes aegypti, the pest or weed control at 2 ppm was at least 80%.
As to `CCc1ncnc(N2[C@@H]3CC[C@H]2CC(O/N=C(\C)c2cccnc2)C3)c1Cl` (stereo partly shown) [Example 2.97], the inhibition of growth at 200 ppm in the data set on Septoria tritici is at least 60%. The figures for the pest or weed control at 200 ppm with Pyricularia oryzae (setting [3]), in the data set with Tetranychus urticae and in the data set with Plasmopara viticola were at least 60%, at least 80% and at least 80%, respectively.
`CCc1ncnc(N2C3CCC2CC(CC(=O)OC)C3)c1Cl` (stereo not shown) [Example 7.36]: the pest or weed control at 200 ppm in the data set on Heliothis virescens, in the data set on Plutella xylostella and in the data set on Tetranychus urticae was at least 80% each time. In the data set on Septoria tritici, the inhibition of growth at 200 ppm is at least 60%. In addition, in the data set on Aedes aegypti, the pest or weed control at 2 ppm is at least 80%.
As to `c1ccc(CC2CC3CCC(C2)N3c2ncnc3sccc23)cc1` (stereo not shown) [Example 7.6], the pest or weed control at 200 ppm is at least 80% with Heliothis virescens; at least 80% in data set [1]; at least 60% with Pyricularia oryzae (setting [3]); at least 80% in the data set with Pyricularia oryzae (setting [4]); at least 80% with Plasmopara viticola. For the same compound, the inhibition of growth at 200 ppm in the data set with Septoria tritici is at least 60%. The pest or weed control at 2 ppm in the data set with Aedes aegypti is at least 80%.
For the compound `Fc1cccc(F)c1CON=C1CC2CCC(C1)N2c1ncnc2sccc12` [Example 5.215], the pest or weed control at 200 ppm in data set [1] was at least 80%; with Pyricularia oryzae (setting [3]), at least 60%; with Pyricularia oryzae (setting [4]) it was at least 80%; in the data set with Plutella xylostella, at least 80%; with Spodoptera littoralis, at least 80%; in the data set on Tetranychus urticae it was at least 80%. The pest or weed control at 200 ppm (in data set [2]; in the data set on Plasmopara viticola; in the data set with Myzus persicae) was at least 80% in each case. In the data set with Aedes aegypti, this compound had a pest or weed control at 2 ppm of at least 80%.
Consider `Clc1ccc(C=C2CC3CCC(C2)N3c2ncnc3sccc23)cc1` [Example 3.20], for which the pest or weed control at 200 ppm is at least 80% in the data set on Heliothis virescens; at least 80% in data set [1]; at least 60% in the data set on Pyricularia oryzae (setting [3]); at least 80% in the data set on Pyricularia oryzae (setting [4]); at least 80% with Plutella xylostella; at least 80% in the data set with Spodoptera littoralis. Besides, the pest or weed control at 200 ppm in the data set with Tetranychus urticae and in the data set with Plasmopara viticola was at least 80% in each case. This compound yielded a pest or weed control at 2 ppm with Aedes aegypti of at least 80%.
Regarding `C(=C1CC2CCC(C1)N2c1ncnc2sccc12)c1ccccc1` [Example 3.27], the pest or weed control at 200 ppm was at least 80% in the data set with Heliothis virescens; at least 80% in the data set with Phytophthora infestans; at least 80% in data set [1]; at least 60% with Pyricularia oryzae (setting [3]); at least 80% in the data set with Pyricularia oryzae (setting [4]); at least 80% in the data set on Plutella xylostella. Also, the pest or weed control at 200 ppm in the data set on Spodoptera littoralis, with Tetranychus urticae and with Plasmopara viticola was at least 80% in each case. In the data set on Aedes aegypti, this compound displayed a pest or weed control at 2 ppm of at least 80%.
In the case of `Fc1cc(C(F)(F)F)ccc1CON=C1CC2CCC(C1)N2c1ncnc2ccccc12` [Example 5.135], the pest or weed control at 200 ppm was at least 80% in the data set on Heliothis virescens; at least 80% in data set [1]; at least 60% in the data set on Pyricularia oryzae (setting [3]); at least 80% in the data set on Pyricularia oryzae (setting [4]); at least 80% in the data set on Plutella xylostella; at least 80% with Tetranychus urticae. Also, the inhibition of growth at 200 ppm in the data set with Septoria tritici and in the data set with Pythium ultimum was at least 60% each time. Moreover, in the data set with Aedes aegypti, the pest or weed control at 2 ppm is at least 80%.
Take `CCc1ncnc(N2C3CCC2CC(=NOCc2ccc(F)cc2)C3)c1Cl` [Example 5.30]: the pest or weed control at 200 ppm was at least 80% with Heliothis virescens; at least 80% in [1]; at least 60% in the data set with Pyricularia oryzae (setting [3]); at least 80% in the data set on Plutella xylostella; at least 80% in the data set on Spodoptera littoralis; at least 80% in data set [2]. For the same compound, the pest or weed control at 200 ppm with Myzus persicae is at least 80%. The same compound registered a pest or weed control at 2 ppm in the data set on Aedes aegypti of at least 80%.
Consider `CCOC(=O)C=C1CC2CCC(C1)N2c1ncnc(CC)c1Cl` [Example 3.8], for which the pest or weed control at 200 ppm (in the data set with Heliothis virescens; in [1]) was at least 80% each time. In the data set with Septoria tritici, the inhibition of growth at 200 ppm is at least 60%. In the data set on Aedes aegypti, this compound registered a pest or weed control at 2 ppm of at least 80%.
`Fc1ccccc1CON=C1CC2CCC(C1)N2c1ncnc2sccc12` [Example 5.211]: the pest or weed control at 200 ppm (in the data set on Heliothis virescens; with Phytophthora infestans; in data set [1]; in the data set on Plutella xylostella; with Spodoptera littoralis; in [2]) was at least 80% throughout. In the data set on Aedes aegypti, the pest or weed control at 2 ppm is at least 80%.
